Measured values: patent US20100311800A1, “ANGIOTENSIN II RECEPTOR ANTAGONISTS” (priority 2008, published 2010)

Legend:
[1] = test system: Reactive Nitrogen Species (RNS); assay: Assay for Reactive Nitrogen Species (RNS) (DAN assay); type: in vivo, rat; parameters: RNS levels: unit not given here; conditions: for RNS levels: EDTA-treated rat plasma
Description: RNS were detected as S-nitrosothiols (RNSOs) in EDTA-treated rat plasma using an HPLC fluorescent assay based on the method of Kostka and Park (Methods Enzymol. 1999, 301, 227-235). The method is based on the detection of fluorescent 2,3-naphthotriazole (NAT) formed in the reaction between acidified 2,3-diaminonaphthalene (DAN) and the nitrosonium moiety of RSNOs released by HgCl2-mediated breakdown of the S—NO bond. The reaction mixture was chromatographed by reversed phase HPLC, and the fluorescent signal of the resolved NAT peak was quantified.
Plasma (20 μL) was first diluted 1:1 in H2O (20 μL) in a black polypropylene untreated microtiter plate. DAN reagent (100 μL per well, 100 μM DAN in 0.1 N HCl, 4 mM HgCl2) was added, and the plate was immediately sealed with an opaque plate mat, vortexed, and incubated in the dark for 10 min. Plates were centrifuged (2000×g, 5 min) and chilled to 4° C. before HPLC analysis. HPLC was carried out on an Agilent 1200 system using a chilled autosampler (4° C.). Samples were chromatographed on a C8 column (Zorbax Eclipse XDB-C8, 4.6×150 mm, 5 μm) with isocratic elution using a mobile phase of 67% MeOH, 0.1% NH4OAc and a flow rate of 2 mL/min. NAT fluorescence was monitored at 450 nm using an excitation wavelength of 360 nm. Calibration curves were prepared using NaNO2 in control plasma. Typical range of quantitation was 0.1 μM to 30 μM NO2.

[2] = test system: conscious spontaneously hypertensive rats (SHRs); assay: Assay for antihypertensive activity (in vivo); parameters: species or system rat; conditions: for BP lowering compared to Compound A: SHR, same dose (10 mg/kg) or inferior dose (3 mg/kg)
Description: The ability of the compounds of the invention to decrease blood pressure was evaluated in conscious spontaneously hypertensive rats (SHRs). SHRs (250-300 g) received a single oral dose of tested compounds. Systolic blood pressure (SBP) and heart rate were monitored by telemetry for 24 hours after dosing. SBP was evaluated before (baseline) and at different time points (i.e. 2-6, 12, 21-hours) following treatment by oral administration of the compounds. The data were processed both as the absolute value or as a delta between the absolute value and its own baseline.
The Dataquest IV telemetry system (Data Sciences International) was used for measurement of systolic pressure, diastolic pressure, mean arterial pressure, heart rate, and motor activity. The monitoring system consists of a transmitter (radio frequency transducer model TA11PA), receiver panel, consolidation matrix, and personal computer with accompanying software. Before the device was implanted, calibrations were verified to be accurate within ±3 mmHg. Rats were anesthetized with ketamine/xylazine/acepromazine, and the flexible catheter of the transmitter was surgically secured in the abdominal aorta just below the renal arteries. The transmitter was sutured subcutaneously. Rats were housed in individual cages after the operation. Each cage was placed over the receiver panel that was connected to the personal computer for data acquisition. The rats were unrestrained and free to move within their cages. Hemodynamic data were sampled every 2 minutes for 10 seconds.

[3] = test system: isolated rabbit thoracic aorta preparations; assay: Assay on vascular tone (vessel relaxation assay); type: cell-based; conditions: Oryctolagus cuniculus; aortic rings precontracted with noradrenaline 1 μM, functional endothelium
Description: The ability of the compounds of the invention to induce vasorelaxation in comparison to native angiotensin II receptor blockers (ARBs) was tested in vitro in isolated rabbit thoracic aorta preparations (Wanstall J. C. et al., Br. J. Pharmacol., 134:463-472, 2001). Male New Zealand rabbits were anaesthetized with thiopental-Na (50 mg/kg, iv), sacrificed by exsanguinations and then the thorax was opened and the aorta dissected. Aortic ring preparations (4 mm in length) were set up in physiological salt solution (PSS) at 37° C. in small organ chambers (5 ml). The composition of PSS was (mM): NaCl 130, NaHCO3 14.9, KH2PO4 1.2, MgSO4 1.2, HEPES 10, CaCl2, ascorbic acid […] and glucose 1.1 (95% O2/5% CO2; pH 7.4). Each ring was mounted under 2 g passive tension. Isometric tension was recorded with a Grass transducer (Grass FT03) attached to a BIOPAC MP150 System. Preparations were allowed to equilibrate for 1 h, and then contracted submaximally with noradrenaline (NA, 1 μM) and, when the contraction was stable, acetylcholine (ACh, 10 μM) was added. A relaxant response to ACh indicated the presence of a functional endothelium. […] When a stable precontraction was reached, a cumulative concentration-response curve to either of the vasorelaxant agents was obtained in the presence of a functional endothelium. Each arterial ring was exposed to only one combination of inhibitor and vasorelaxant. Moreover, the effect of the soluble guanylyl cyclase inhibitor ODQ (1-H-(1,2,4)-oxadiazol(4,3-a)quinoxalin-1-one) on vasorelaxation elicited by the compounds was examined preincubating the aortic rings with ODQ (10 μM) for 20 min.
Responses to relaxing agents are expressed as a percentage of residual contraction and plotted against concentration of test compound. EC50 values (where EC50 is the concentration producing 50% of the maximum relaxation to the test compound) were interpolated from these plots. During the experimental period, the plateau obtained with NA was stable without significant spontaneous loss of contraction in the aortic rings.
Furthermore, in experiments performed in the presence of ODQ (10 μM), the vasorelaxant responses to tested compounds were inhibited.

[4] = 10 mpk single oral dose, 21-24 h
[5] = 3 mpk single oral dose, 21-24 h

EC50 [3] [µM]	SMILES	Δ SBP in SHR ([2]; 10 mpk single oral dose, 2-6 h) [mmHg]	Δ SBP in SHR [2, 4] [mmHg]	Δ SBP in SHR ([2]; 10 mpk single oral dose, 12 h) [mmHg]	BP lowering compared to Compound A [2]	other results
–	CCCCc1nc(Cl)c(C(=O)OCCOCCO[N+](=O)[O-])n1Cc1ccc(-c2ccccc2-c2nn[nH]n2)cc1 [Compound A, reference compound]	−15	−8	−12	–	RNS levels ([1]; time 0 h): 0.4; RNS levels ([1]; time 1 h): 2.8; RNS levels ([1]; time 3 h): 1.4; RNS levels ([1]; time 6 h): 0.9; RNS levels ([1]; time 24 h): 0
22	CCCCc1nc(Cl)c(C(=O)OC(C)OC(=O)OCCCC[C@@H](C)O[N+](=O)[O-])n1Cc1ccc(-c2ccccc2-c2nnn[nH]2)cc1 (stereo partly drawn) [Example 1, 1-[({[(R)-5-(nitrooxy)hexyl]oxy}carbonyl)oxy]ethyl 2-butyl-4-chloro-1-{[2′-(1H-tetrazol-5-yl)biphenyl-4-yl]methyl}-1H-imidazole-5-carboxylate]	–	–	–	–	–
31	CCOc1nc2cccc(C(=O)OC(C)(C)OC(=O)OCCCCC(C)O[N+](=O)[O-])c2n1Cc1ccc(-c2ccccc2-c2nnn[nH]2)cc1 (centres unmarked) [Example 2]	–	–	–	extended peak effect and duration of action	Δ SBP in SHR ([2]; 3 mpk single oral dose, 2-6 h): −30 mmHg; Δ SBP in SHR [2, 5]: −36 mmHg; Δ SBP in SHR ([2]; 3 mpk single oral dose, 12 h): −34 mmHg
39	CCCCc1nc(Cl)c(C(=O)OC(C)OC(=O)OCCCC[C@H](C)O[N+](=O)[O-])n1Cc1ccc(-c2ccccc2-c2nn[nH]n2)cc1 (stereo partly drawn) [Example 3, 1-[({[(5S)-5-(nitrooxy)hexyl]oxy}carbonyl)oxy]ethyl 2-butyl-4-chloro-1-{[2′-(1H-tetrazol-5-yl)biphenyl-4-yl]methyl}-1H-imidazole-5-carboxylate]	–	–	–	–	–
27	CCCCc1nc(Cl)c(C(=O)OC(C)OC(=O)OCCCCC(C)O[N+](=O)[O-])n1Cc1ccc(-c2ccccc2-c2nn[nH]n2)cc1 (centres unmarked) [Example 4, 1-[({[5-(nitrooxy)hexyl]oxy}carbonyl)oxy]ethyl 2-butyl-4-chloro-1-{[2′-(1H-tetrazol-5-yl)biphenyl-4-yl]methyl}-1H-imidazole-5-carboxylate]	−10	−30	−30	extended peak effect and duration of action	RNS levels ([1]; time 0 h): 0.9; RNS levels ([1]; time 1 h): 6.9; RNS levels ([1]; time 3 h): 6.9; RNS levels ([1]; time 6 h): 2.4; RNS levels ([1]; time 24 h): 1.6; RNS levels compared to Compound A ([1]; rat plasma): improved RNS levels
22	CCCCc1nc(Cl)c(C(=O)OC(C)OC(=O)OCCC(C)O[N+](=O)[O-])n1Cc1ccc(-c2ccccc2-c2nn[nH]n2)cc1 (centres unmarked) [Example 5, 1-[({[3-(nitrooxy)butyl]oxy}carbonyl)oxy]ethyl 2-butyl-4-chloro-1-{[2′-(1H-tetrazol-5-yl)biphenyl-4-yl]methyl}-1H-imidazole-5-carboxylate]	–	–	–	–	–
23	CCCCc1nc(Cl)c(C(=O)OC(C)OC(=O)OCC[C@@H](C)O[N+](=O)[O-])n1Cc1ccc(-c2ccccc2-c2nn[nH]n2)cc1 (stereo partly drawn) [Example 6, 1-[({[(3R)-3-(nitrooxy)butyl]oxy}carbonyl)oxy]ethyl 2-butyl-4-chloro-1-{[2′-(1H-tetrazol-5-yl)biphenyl-4-yl]methyl}-1H-imidazole-5-carboxylate]	−16	−17	−21	extended peak effect and duration of action	–
26	CCCCc1nc(Cl)c(C(=O)OC(C)OC(=O)OCC[C@H](C)O[N+](=O)[O-])n1Cc1ccc(-c2ccccc2-c2nn[nH]n2)cc1 (stereo partly drawn) [Example 7, 1-[({[(3S)-3-(nitrooxy)butyl]oxy}carbonyl)oxy]ethyl 2-butyl-4-chloro-1-{[2′-(1H-tetrazol-5-yl)biphenyl-4-yl]methyl}-1H-imidazole-5-carboxylate]	–	–	–	–	–
40	CCCCc1nc(Cl)c(C(=O)OC(C)OC(=O)CCCC(C)O[N+](=O)[O-])n1Cc1ccc(-c2ccccc2-c2nn[nH]n2)cc1 (centres unmarked) [Example 8]	−31	−28	−29	extended peak effect and duration of action	–
43	CCOc1nc2cccc(C(=O)OC(C)OC(=O)CCCC(C)O[N+](=O)[O-])c2n1Cc1ccc(-c2ccccc2-c2nn[nH]n2)cc1 (centres unmarked) [Example 9]	–	–	–	extended peak effect and duration of action	Δ SBP in SHR ([2]; 3 mpk single oral dose, 2-6 h): −43 mmHg; Δ SBP in SHR [2, 5]: −50 mmHg; Δ SBP in SHR ([2]; 3 mpk single oral dose, 12 h): −49 mmHg
5.3	CCCCc1nc(Cl)c(COC(=O)C23CC4CC(CC(O[N+](=O)[O-])(C4)C2)C3)n1Cc1ccc(-c2ccccc2-c2nnn[nH]2)cc1 [Example 10, (2-butyl-4-chloro-1-{[2′-(1H-tetrazol-5-yl)biphenyl-4-yl]methyl}-1H-imidazol-5-yl)methyl 3-(nitrooxy)adamantane-1-carboxylate]	–	–	–	–	–
